≈ marks a conversion by molar mass, not a printed value. Read-outs that look alike come from different tables or passages of the source.
Legend:
[1] = biological target: yeast plasma membrane H+-ATPase (Pma1p) (Candida albicans, UniProt P28877); assay: Medium acidification assay in C. albicans S1; type: cell-based; settings: change in pH at 30 min, highest test concentration 30 µM, mean ± SEM of three experiments
[2] = tested on: human epidermoid carcinoma cells KB-3-1; assay: MTT cell viability assay in KB-3-1 cells; type: cell-based; settings: for IC50: 24 h incubation, 48 h of treatment; for fungal selectivity (ratio of the IC50 in KB-3-1 cells to the IC50 in S1 cells): KB-3-1 vs C. albicans S1
Procedure: MTT assays were then performed to assess the effect of the test compounds on human epidermoid carcinoma cells KB-3-1 (24 h incubation).
The cell viability assay was performed in human epidermoid carcinoma cells KB-3-1. Initially, 5 × 10^3 cells were seeded into each well in a 96-well plate. […] After 48 h of treatment, 20 µL of MTT solution (5 mg/mL) was added to each well and allowed to incubate for 3.5 h. Subsequently, DMSO was added to each well upon removal of the MTT solution. The Abs570nm values were then measured using an accuSkanTM GO UV/VIS Microplate Spectrophotometer (Fisher Sci., Fair Lawn, NJ, USA).

[3] = tested on: C. albicans S1 (FLU-sensitive); assay: Turbidity assay (MIC and IC50) in C. albicans S1; type: cell-based
[4] = biological target: Na+, K+-ATPase (purified from pig kidney outer medulla) (Sus scrofa, UniProt P05024); assay: Na+,K+-ATPase activity assay; type: biochemical; settings: test concentrations similar to the MIC concentrations; micromolar range; prevented by 5 mM GSH
[5] = tested on: C. albicans S1 (FLU-sensitive); assay: Colorimetric resazurin assay (MIC) in C. albicans S1; type: cell-based; settings: read-out: MIC, colorimetric assay
C. albicans S1 = assay: Mouse model of vulvovaginal candidiasis (VVC); settings: for histopathology of vaginal tissue (H&E): day 6, infected and treated mice; for Log CFU/100 μL / Remaining C. albicans S1 Compared to Control (100%): vaginal lavage day 6, intravaginal once daily days 3-5, CHB 12.5 mg/kg, MICO 2% cream; for expression of MPO in vaginal tissue (IHC): day 6, compared to 6th day infected and vehicle groups; for PMN counts of vaginal tissues: day 6, compared to control and vehicle group; for gross markers of the health of the mice: intravaginal suspension, over the course of the study
[6] = tested on: reconstructed human epidermis; assay: In vitro skin irritation test on reconstructed human epidermal model (EpiDerm, OECD TG 439); type: cell-based
Procedure: The in vitro skin irritation test was performed using MatTek Corporation’s Reconstructed Human Epidermal Model EpiDerm™ following the manufacturer’s instructions, which fulfills the criteria set forth in the Organization for Economic Co-operation and Development.
Briefly, we applied either 30 µL of CHB4 or CHB6, PBS, 0.1% DMSO or 30 µL of 1% Triton-X100 (positive control for irritation). All plates were then incubated in a humidified environment for an additional 35 ± 1 min at 37 ± 1 °C, 5 ± 1% CO2, and 90% ± 10% relative humidity (RH). Once the 1 h incubation period was completed for the dosed tissues, all plates were removed from the incubator and placed in a sterile hood. The tissues were then rinsed 15 times with sterile PBS. The blotted tissue inserts were then incubated for 42 ± 2 h after which time the cell viability was determined using the MTT assay as described.

[7] = tested on: breast cancer cell line MCF-7; design: method as in PMID 31683558; settings: breast cancer cell line MCF-7 ref 23; cited from earlier work
[8] = read-out: IC50MA (medium acidification)
[9] = Homo sapiens, KB 3-1, KB-3-1 cells, read-out: MTT Assay IC50 KB-3-1 Cells
[10] = Abs600nm at 48 h; read-out: Turbidity Assay IC50 C. albicans S1
[11] = C. albicans S1, 24 h; for FLU the lowest concentration causing 70% decrease in turbidity; read-out: MIC, turbidity assay
[12] = C. albicans S1, 48 h; for FLU the lowest concentration causing 70% decrease in turbidity; read-out: MIC, turbidity assay
[13] = Candida albicans, 24 h; read-out: MIC, turbidity assay
[14] = Candida albicans, 48 h, Abs600nm at 48 h; read-out: Turbidity Assay IC50 C. albicans S1
[15] = Candida albicans, 48 h; read-out: MIC, turbidity assay
[16] = KB-3-1 cells, read-out: MTT Assay IC50 KB-3-1 Cells
[17] = Candida albicans, C. albicans S1, 24 h, resazurin
[18] = Candida albicans, C. albicans S1, 48 h, resazurin
[19] = Homo sapiens, KB 3-1, read-out: MTT Assay IC50 KB-3-1 Cells, KB-3-1 cells
[20] = Candida albicans, 24 h, read-out: MIC, turbidity assay
[21] = Candida albicans, 48 h, read-out: MIC, turbidity assay
[22] = Candida albicans, 48 h, read-out: Turbidity Assay IC50 C. albicans S1
[23] = Candida albicans; Abs600nm at 48 h; read-out: Turbidity Assay IC50 C. albicans S1

yeast plasma membrane H+-ATPase (Pma1p), sequence (P28877 whole entry): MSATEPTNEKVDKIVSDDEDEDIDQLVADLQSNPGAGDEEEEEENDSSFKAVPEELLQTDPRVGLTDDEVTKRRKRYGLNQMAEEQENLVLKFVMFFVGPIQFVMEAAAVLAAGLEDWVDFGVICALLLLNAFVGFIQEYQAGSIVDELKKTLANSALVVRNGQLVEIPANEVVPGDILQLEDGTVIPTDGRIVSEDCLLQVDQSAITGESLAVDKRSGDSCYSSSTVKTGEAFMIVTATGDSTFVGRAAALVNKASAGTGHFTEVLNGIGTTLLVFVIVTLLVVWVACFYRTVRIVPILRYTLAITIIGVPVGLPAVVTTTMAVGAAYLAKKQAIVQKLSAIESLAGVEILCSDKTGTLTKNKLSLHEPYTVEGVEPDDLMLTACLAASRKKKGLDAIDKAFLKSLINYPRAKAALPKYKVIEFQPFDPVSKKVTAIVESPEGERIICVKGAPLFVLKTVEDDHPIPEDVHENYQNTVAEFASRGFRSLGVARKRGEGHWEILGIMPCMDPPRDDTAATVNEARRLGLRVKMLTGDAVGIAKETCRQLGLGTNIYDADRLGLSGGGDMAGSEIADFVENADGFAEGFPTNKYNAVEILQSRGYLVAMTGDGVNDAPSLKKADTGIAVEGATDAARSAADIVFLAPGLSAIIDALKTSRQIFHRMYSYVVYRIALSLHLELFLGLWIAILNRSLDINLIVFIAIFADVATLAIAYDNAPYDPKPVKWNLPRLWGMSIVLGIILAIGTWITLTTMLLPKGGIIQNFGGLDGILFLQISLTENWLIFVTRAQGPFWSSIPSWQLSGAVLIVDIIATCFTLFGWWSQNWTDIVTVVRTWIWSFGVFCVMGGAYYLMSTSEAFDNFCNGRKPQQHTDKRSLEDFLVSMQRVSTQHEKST

Row | Compound | IC50 [1, 8] [µM] | IC50 [2, 9] [µM] | MIC [3, 11] [µM] | MIC [3, 12] [µM] | MIC [3, 13] [µM] | MIC [3, 15] [µM] | inhibitory activity towards the Na+, K+-ATPase [4] | MIC [5, 17] [µM] | MIC [5, 18] [µM] | IC50 [2, 19] [µM] | MIC [3, 20] [µM] | MIC [3, 21] [µM] | IC50 [3, 22] [µM] | MIC ([5]; Candida albicans, 24 h) [µM] | MIC ([5]; Candida albicans, 48 h) [µM] | IC50 ([1]; IC50MA (medium acidification)) [µM] | IC50 [3, 23] [µM] | histopathology of vaginal tissue (H&E) (C. albicans S1) | Log CFU/100 μL (C. albicans S1) [Log CFU/100 μL] | Remaining C. albicans S1 Compared to Control (100%) (C. albicans S1) [%] | also measured
1 | OC(Cn1cncn1)(Cn1cncn1)c1ccc(F)cc1F [FLU, fluconazole, reference compound] | > 30 | > 1000 | 25.0 (≈ 7.66 µg/mL) | 25.0 (≈ 7.66 µg/mL) | 25 (≈ 7.66 µg/mL) | 25 (≈ 7.66 µg/mL) |  |  |  |  |  |  |  |  |  |  |  |  |  |  | IC50 [3, 10]: 6.01 ± 0.1 µM; IC50 [3, 14]: ~6 µM
2 | O=c1c2ccccc2[se]n1-c1ccccc1 [EB, Ebselen, reference compound] |  | 89.7 | 25.0 (≈ 6.85 µg/mL) | 25.0 (≈ 6.85 µg/mL) | 25 (≈ 6.85 µg/mL) | 25 (≈ 6.85 µg/mL) | possess inhibitory activity | 25 (≈ 6.85 µg/mL) | 25 (≈ 6.85 µg/mL) |  |  |  |  |  |  |  |  |  |  |  | IC50 [2, 16]: 89.7 ± 3.42 µM; IC50 [3, 10]: 17.1 ± 1.01 µM; IC50 [3, 14]: ~17 µM; MIC ([5]; C. albicans S1, 24 h, resazurin): 25.0 µM (≈ 6.85 µg/mL); MIC ([5]; C. albicans S1, 48 h, resazurin): 25.0 µM (≈ 6.85 µg/mL)
3 | CC1(C)C2CCC(Cn3[se]c4ccccc4c3=O)C1C2 (single isomer, unassigned; (-)) [CHB3] | > 30 |  | 25.0 (≈ 8.36 µg/mL) | 25.0 (≈ 8.36 µg/mL) |  |  |  |  |  | > 60 | 25 (≈ 8.36 µg/mL) | 25 (≈ 8.36 µg/mL) | 18.1 ± 0.2 | 12.5 (≈ 4.18 µg/mL) | 25 (≈ 8.36 µg/mL) |  |  |  |  |  | IC50 ([2]; read-out: MTT Assay IC50 KB-3-1 Cells, KB-3-1 cells): 65.7 ± 4.4 µM
4 | C[C@@H]1[C@@H](n2[se]c3ccccc3c2=O)C[C@H]2C[C@@H]1C2(C)C [CHB1] |  | 28.1 ± 1.5 |  |  | 12.5 (≈ 4.18 µg/mL) | 12.5 (≈ 4.18 µg/mL) |  | 12.5 (≈ 4.18 µg/mL) | 6.3 (≈ 2.11 µg/mL) |  |  |  |  |  |  | > 30 | 7.3 ± 0.1 |  |  |  | 
5 | Clc1ccc(COC(Cn2ccnc2)c2ccc(Cl)cc2Cl)c(Cl)c1 (centres unmarked) [Miconazole (MICO), miconazole, reference compound] |  |  |  |  |  |  |  |  |  |  |  |  |  |  |  |  |  | slight epithelial distress | 4.470 | 6.950 | 
6 | CC(C)[C@@H]1CC[C@@H](C)C[C@H]1n1[se]c2ccccc2c1=O [CHB6, (−)-N-(1R,2S,5R)-menthyl-1,2-benzizoselenazol-3(2H)-one] | > 30 |  |  |  |  |  | possess inhibitory activity |  |  | 48.5 ± 5.9 | 3.1 (≈ 1.04 µg/mL) | 3.1 (≈ 1.04 µg/mL) | 1.8 ± 0.1 | 3.1 (≈ 1.04 µg/mL) | 3.1 (≈ 1.04 µg/mL) |  |  | slight epithelial distress | 3.655 | 1.064 | skin irritation ([6]; test concentrations up to 50 µM): no skin irritation; fungal selectivity (ratio of the IC50 in KB-3-1 cells to the IC50 in S1 cells) [2]: 26.9; IC50 [7]: 11.9 ± 0.2 µM; expression of MPO in vaginal tissue (IHC) (C. albicans S1): decrease; PMN counts of vaginal tissues (C. albicans S1): less PMN counts compared to control and vehicle group; gross markers of the health of the mice (C. albicans S1): without affecting any gross markers of the health of the mice
7 | C[C@H]1[C@H](n2[se]c3ccccc3c2=O)C[C@@H]2C[C@H]1C2(C)C [CHB2] |  | 25.5 ± 1.9 |  |  | 12.5 (≈ 4.18 µg/mL) | 12.5 (≈ 4.18 µg/mL) |  | 12.5 (≈ 4.18 µg/mL) | 12.5 (≈ 4.18 µg/mL) |  |  |  |  |  |  | > 30 | 7.6 ± 0.1 |  |  |  | 
8 | C[C@H]1CC[C@@H]2[C@H]([C@@H]1n1[se]c3ccccc3c1=O)C2(C)C [CHB4] | 13.8 ± 1.1 |  |  |  |  |  | possess inhibitory activity |  |  | 17.9 ± 3.1 | 12.5 (≈ 4.18 µg/mL) | 12.5 (≈ 4.18 µg/mL) | 7.7 ± 0.1 | 6.3 (≈ 2.11 µg/mL) | 12.5 (≈ 4.18 µg/mL) |  |  | slight epithelial distress | 4.448 | 6.607 | skin irritation ([6]; test concentrations up to 100 µM): no skin irritation; fungal selectivity (ratio of the IC50 in KB-3-1 cells to the IC50 in S1 cells) [2]: 2.3; expression of MPO in vaginal tissue (IHC) (C. albicans S1): decrease; PMN counts of vaginal tissues (C. albicans S1): less PMN counts compared to control and vehicle group; gross markers of the health of the mice (C. albicans S1): without affecting any gross markers of the health of the mice
9 | C[C@@H]1C[C@H]2[C@@H](C[C@H]1n1[se]c3ccccc3c1=O)C2(C)C [CHB5] |  | > 90 |  |  | 25 (≈ 8.36 µg/mL) | 12.5 (≈ 4.18 µg/mL) |  | 12.5 (≈ 4.18 µg/mL) | 25 (≈ 8.36 µg/mL) |  |  |  |  |  |  | > 30 | 7.5 ± 0.1 |  |  |  | IC50 [2, 16]: 94.1 ± 4.7 µM

From PMC10647704 (Molecules, 2023)
